# According to patent US4748254A, “Mixed carboxylato platinum (II) complexes” (priority 1984, dated 1988):
# Columns and labels:
# lymphoid leukosis L-1210 [1] = assay: Increase of lifespan of mice with lymphoid leukosis L-1210; type: in vivo
# Method: (§1) As the criteria for the antitumor activity for leukosises and ascytic forms of tumors the increase of the lifespan of treated animals (ILS, %)
# (§2) T--average lifespan of treated animals;
# (§3) C--average lifespan of control animals;
# The experiments were carried out on line mice and their hybrides of the first generation. […] The compounds were administered to animals intraperitoneally in a 5% solution of glucose once or daily over 5 days within the time limits adopted in experimental studies of corresponding tumors.
# [2] = test system: mammal adenocarcinoma Ca 755; assay: Tumor growth inhibition of mammal adenocarcinoma Ca 755; type: in vivo, mice
# Method: and for a solid tumor--tumor growth inhibition (TGI, %)
# O--volume of tumors in the group of treated animals;
# K--volume of tumors in the control group were employed.
# (§4) The experiments were carried out on line mice and their hybrides of the first generation. […]
# hepatoma 22a = assay: Increase of lifespan of mice with grafted hepatoma 22a; type: in vivo
# Method: as §1, §2, §3, §4
# plasmacytoma MOPC-406 = assay: Increase of lifespan of mice with plasmacytoma MOPC-406; type: in vivo; details: for curing of animals with plasmocytoma MOPC-406: in words
# Method: as §1, §2, §3, §4
# [3] = test system: plasmacytoma of mice ADJ/PC6A; details: cited from earlier work
# hemocytoblastosis La = assay: Increase of lifespan of mice with hemocytoblastosis La; type: in vivo
# Method: as §1, §2, §3, §4
# lymphoid leukosis L-1210 [4] = assay: Increase of lifespan of mice with lymphoid leukosis L-1210; type: in vivo; details: 3 mg/kg i.p. in 0.9% NaCl, days of treatment 1-5
# tumors = details: in words; cited from earlier work
# [5] = Storage stability and hygroscopicity; type: physicochemical; details: in words
# [6] = test system: graft strains of tumors and leukoses of mice; assay: Antitumor activity, overall statement; type: in vivo; details: in words
# Method: The antitumor activity of the compounds according to the present invention has been studied on a number of strains of grafted solid tumors and leukosises of mice: plasmacytoma MOPC-406, lymphoid leukosis L-1210, hemocytoblastosis La, hepatoma 22a, mammal adenocarcinoma Ca 755.
# The experiments were carried out on line mice and their hybrides of the first generation. […] The compounds were administered to animals intraperitoneally in a 5% solution of glucose once or daily over 5 days within the time limits adopted in experimental studies of corresponding tumors. […]
# [7] = cited from earlier work
# [8] = cited from earlier work; remark: listed apart in the source
# [9] = 30 mg/kg i.p., days of treatment 2-6
# [10] = 20-40 mg/kg i.p., days of treatment 2-6
# [11] = 15-25 mg/kg i.p., days of treatment 2-6
# [12] = 5 mg/kg i.p. in 0.9% NaCl, day 3
# [13] = 2 mg/kg i.p. in 0.9% NaCl, days of treatment 2-5
# [14] = 20-25 mg/kg i.p., days of treatment 2-6
# [15] = 20 mg/kg i.p., days of treatment 7-11
compound,measurement,setting,value
"[NH2][Pt]1([NH]C2CCCCC2)[O]C(=O)CCC(=O)[O]1 [Example 15, succinatoammine(cyclohexylamine)platinum(II)]","Increase of lifespan, %, L-1210",lymphoid leukosis L-1210 [1]; [9],108%
same,"Increase of lifespan, %, L-1210","lymphoid leukosis L-1210 [1]; 150 mg/kg i.p., day 2",120%
same,"Tumor growth inhibition, %, Ca-755",[2]; [9],72%
"N.NCC1CCCO1.O.O=C1C[C@H](O)C(=O)[O][Pt][O]1 [Example 21, S(-)-malatoammine(tetrahydrofurfurylamine)platinum(II)]","Increase of lifespan, %, Hepatoma 22a",hepatoma 22a; [10],340%
same,"number of cured animals / animals employed, Hepatoma 22a",hepatoma 22a; [10],2/6
same,curing of animals with hepatoma 22a,hepatoma 22a; in words,cure a portion of animals
same,"Increase of lifespan, %, L-1210",lymphoid leukosis L-1210 [1]; [10],120%
same,"Increase of lifespan, %, MOPC-406",plasmacytoma MOPC-406; [10],280%
same,"number of cured animals / animals employed, MOPC-406",plasmacytoma MOPC-406; [10],3/6
same,curing of animals with plasmocytoma MOPC-406,plasmacytoma MOPC-406,ensure curing of a certain number of animals (up to 100%)
same,"Tumor growth inhibition, %, Ca-755",[2]; [10],95%
NC1CCCCC1.NC1CCCCC1.[Cl][Pt][Cl] [complex with cyclohexylamine],therapeutical index TI=LD50/ID90,"[3]; plasmacytoma ADJ/PC6A, mice",above 267
"N.NC1CC1.O=C([O-])CC(=O)[O-].[Pt+2] [Example 1, malonatoammine(cyclopropylamine)platinum(II)]","Increase of lifespan, %, Hepatoma 22a",hepatoma 22a; [11],85%
same,"number of cured animals / animals employed, Hepatoma 22a",hepatoma 22a; [11],0/6
same,"Increase of lifespan, %, L-1210",lymphoid leukosis L-1210 [1]; [11],39%
same,"Increase of lifespan, %, L-1210","lymphoid leukosis L-1210 [1]; 60-70 mg/kg i.p., day 2",48%
same,"Increase of lifespan, %, La",hemocytoblastosis La; [11],29%
same,"Increase of lifespan, %, MOPC-406","plasmacytoma MOPC-406; 60 mg/kg i.p., day 7",150%
same,"number of cured animals / animals employed, MOPC-406","plasmacytoma MOPC-406; 60 mg/kg i.p., day 7",1/6
same,"Increase of lifespan, %, MOPC-406",plasmacytoma MOPC-406; [11],268%
same,"number of cured animals / animals employed, MOPC-406",plasmacytoma MOPC-406; [11],2/6
same,"Increase of lifespan, %, MOPC-406","plasmacytoma MOPC-406; 60-70 mg/kg i.p., day 2",177%
same,"number of cured animals / animals employed, MOPC-406","plasmacytoma MOPC-406; 60-70 mg/kg i.p., day 2",1/6
same,curing of animals with plasmocytoma MOPC-406,plasmacytoma MOPC-406,ensure curing of a certain number of animals (up to 100%)
same,"Tumor growth inhibition, %, Ca-755",[2]; [11],89%
"N.N.[Cl][Pt][Cl] [DDP, cis-dichlorodiammineplatinum(II), reference compound]","Increase of lifespan, %, Hepatoma 22a",hepatoma 22a; [12],120%
same,"number of cured animals / animals employed, Hepatoma 22a",hepatoma 22a; [12],0/6
same,curing of animals with hepatoma 22a,hepatoma 22a; in words,no curing of animals
same,"Increase of lifespan, %, La","hemocytoblastosis La; 8 mg/kg i.p. in 0.9% NaCl, day 1",200%
same,"Increase of lifespan, %, MOPC-406",plasmacytoma MOPC-406; [13],140%
same,"number of cured animals / animals employed, MOPC-406",plasmacytoma MOPC-406; [13],0/6
same,curing of animals with plasmocytoma MOPC-406,plasmacytoma MOPC-406,no curing of animals
same,"Tumor growth inhibition, %, Ca-755","[2]; 8 mg/kg i.p. in 0.9% NaCl, day 2",95%
same,"Increase of lifespan, %, L-1210",lymphoid leukosis L-1210 [4],116%
same,ID90 (dose inhibiting growth of tumors by 90%),"[3]; plasmacytoma ADJ/PC6A, mice",1.6 mg/kg
same,antitumor activity,tumors,high antitumor activity
same,spectrum of action on diverse tumors,tumors,remarkably wide spectrum of action on diverse tumors
RS-malatoammine(cyclopentylamine)platinum(II) [Example 5],"Increase of lifespan, %, Hepatoma 22a",hepatoma 22a; [14],322%
same,"number of cured animals / animals employed, Hepatoma 22a",hepatoma 22a; [14],2/6
same,curing of animals with hepatoma 22a,hepatoma 22a; in words,cure a portion of animals
same,"Increase of lifespan, %, L-1210",lymphoid leukosis L-1210 [1]; [14],156%
same,"Increase of lifespan, %, MOPC-406",plasmacytoma MOPC-406; [14],350%
same,"number of cured animals / animals employed, MOPC-406",plasmacytoma MOPC-406; [14],4/6
same,curing of animals with plasmocytoma MOPC-406,plasmacytoma MOPC-406,ensure curing of a certain number of animals (up to 100%)
same,"Tumor growth inhibition, %, Ca-755",[2]; [14],95%
"N.NC1CCC1.O=C1[O][Pt][O]C(=O)C1O [Example 3, (hydroxymalonato)ammine(cyclobutylamine)platinum(II)]","Increase of lifespan, %, L-1210","lymphoid leukosis L-1210 [1]; 25 mg/kg i.p., days of treatment 2-6",100%
same,"Increase of lifespan, %, L-1210","lymphoid leukosis L-1210 [1]; 60 mg/kg i.p., day 2",71%
same,"Tumor growth inhibition, %, Ca-755","[2]; 20 mg/kg i.p., days of treatment 2-6",70%
S(-)malatoammine(cyclopentylamine)platinum(II) [Example 4],"Increase of lifespan, %, Hepatoma 22a",hepatoma 22a; [11],225%
same,"number of cured animals / animals employed, Hepatoma 22a",hepatoma 22a; [11],4/6
same,curing of animals with hepatoma 22a,hepatoma 22a; in words,cure a portion of animals
same,curing of animals with hepatoma 22a,hepatoma 22a; optimal doses,up to 66%
same,"Increase of lifespan, %, L-1210",lymphoid leukosis L-1210 [1]; [11],195%
same,"Increase of lifespan, %, L-1210","lymphoid leukosis L-1210 [1]; 60-80 mg/kg i.p., day 2",101%
same,extension of life span of animals with leukemia L-1210,lymphoid leukosis L-1210 [1]; optimal doses,195%
same,"Increase of lifespan, %, La",hemocytoblastosis La; [11],113%
same,lifespan of animals with hemocytoblastosis La,hemocytoblastosis La; in words,considerably extends the lifespan
same,extension of life span of animals with hemocytoblastosis La,hemocytoblastosis La; optimal doses,113%
same,"Increase of lifespan, %, MOPC-406",plasmacytoma MOPC-406; [15],356%
same,"number of cured animals / animals employed, MOPC-406",plasmacytoma MOPC-406; [15],3/6
same,"Increase of lifespan, %, MOPC-406",plasmacytoma MOPC-406; [11],327%
same,"number of cured animals / animals employed, MOPC-406",plasmacytoma MOPC-406; [11],6/6
same,"Increase of lifespan, %, MOPC-406","plasmacytoma MOPC-406; 60-80 mg/kg i.p., day 2",310%
same,"number of cured animals / animals employed, MOPC-406","plasmacytoma MOPC-406; 60-80 mg/kg i.p., day 2",5/6
same,curing of animals with plasmocytoma MOPC-406,plasmacytoma MOPC-406,ensure curing of a certain number of animals (up to 100%)
same,curing of animals with plasmacytoma MOPC-406,plasmacytoma MOPC-406; optimal doses,up to 100%
same,"Tumor growth inhibition, %, Ca-755",[2]; [11],96%
same,hygroscopicity,[5],hydroscopic
same,antitumor activity,[6],highest antitumor activity among the compounds according to the present invention
[Cl][Pt-2]([Cl])([NH2+]C1CCCC1)[NH2+]C1CCCC1 [cis-[PtCl2 (cyclo-C5 H9 NH2)2]],ID90 (dose inhibiting growth of tumors by 90%),"[3]; plasmacytoma ADJ/PC6A, mice",2.4 mg/kg
same,therapeutical index TI=LD50/ID90,"[3]; plasmacytoma ADJ/PC6A, mice",200
same,solubility in water,"[7]; prior art compound, in words",substantially insoluble in water
same,therapeutic response or side effect,[8]; fine suspensions in sesame oil or aqueous solloids stabilized by polyvinylpyrrolidone,no therapeutic response or a side effect
same,local irritation,[8]; in vivo,local irritation upon administration of an oily suspension
same,retention at the spot of the injection,[8]; in vivo,substantially remains at the spot of the injection
"[NH2][Pt]1([NH]C2CCCC2)[O]C(=O)CC(=O)[O]1 [Example 6, malonatoammine(cyclopentylamine)platinum(II)]","Increase of lifespan, %, Hepatoma 22a",hepatoma 22a; [11],140%
same,"number of cured animals / animals employed, Hepatoma 22a",hepatoma 22a; [11],2/6
same,curing of animals with hepatoma 22a,hepatoma 22a; in words,cure a portion of animals
same,"Increase of lifespan, %, L-1210",lymphoid leukosis L-1210 [1]; [11],36%
same,"Increase of lifespan, %, L-1210","lymphoid leukosis L-1210 [1]; 40-60 mg/kg i.p., day 2",45%
same,"Increase of lifespan, %, La",hemocytoblastosis La; [11],21%
same,"Increase of lifespan, %, MOPC-406","plasmacytoma MOPC-406; 50 mg/kg i.p., day 7",329%
same,"number of cured animals / animals employed, MOPC-406","plasmacytoma MOPC-406; 50 mg/kg i.p., day 7",3/6
same,"Increase of lifespan, %, MOPC-406",plasmacytoma MOPC-406; [11],286%
same,"number of cured animals / animals employed, MOPC-406",plasmacytoma MOPC-406; [11],3/6
same,"Increase of lifespan, %, MOPC-406","plasmacytoma MOPC-406; 40-60 mg/kg i.p., day 2",300%
same,"number of cured animals / animals employed, MOPC-406","plasmacytoma MOPC-406; 40-60 mg/kg i.p., day 2",5/6
same,curing of animals with plasmocytoma MOPC-406,plasmacytoma MOPC-406,ensure curing of a certain number of animals (up to 100%)
same,"Tumor growth inhibition, %, Ca-755",[2]; [11],76%
same,hygroscopicity,[5],very hygroscopic
N.NC1CCCC1.[Cl][Pt][Cl] [cis-[PtCl2 NH3 (cyclo-C5 H9 NH2)]],toxicity compared with DDP,"[3]; in words, versus DDP",slightly more toxic than DDP
same,LD50,"[3]; mice, plasmacytoma ADJ/PC6A tests",11.0 mg/kg
same,ID90 (dose inhibiting growth of tumors by 90%),"[3]; plasmacytoma ADJ/PC6A, mice",0.5 mg/kg
same,"90% tumor growth inhibiting dose, times less than that of DDP","[3]; plasmacytoma ADJ/PC6A, versus DDP",3 times
same,"90% tumor growth inhibiting dose, times less than that of cis-[PtCl2 (cyclo-C5 H9 NH2)2 ]","[3]; plasmacytoma ADJ/PC6A, versus cis-[PtCl2 (cyclo-C5 H9 NH2)2 ]",~5 times
same,solubility in 0.9% NaCl,[7]; 0.9% NaCl,about 1 mg/ml
same,advantage over parent compounds with identical ligands,tumors,absence of advantages of this mixed complex as compared to the parent compounds with identical ligands
